Structures are written as SMILES. ≈ marks a conversion by molar mass, not a printed value.

As a reminder, the MIC is the smallest concentration in the dilution series that meets the test's criterion for growth inhibition. A low value points to greater potency.

Holding throughout (assay): ≥ marks a high value that may be exact or a test limit, other limits are often not marked, values filed in µg/mL are converted to µM
Experiment [1] relates to Staphylococcus aureus ATCC 25923.
The test system of experiment [2] is Candida albicans ATCC 2002.
For experiment [3], the system named is Escherichia coli ATCC 25922.
The subject of experiment [4] is Pseudomonas aeruginosa CMCCB 10104.

In the case of `CC[C@H](C)[C@H](NC(=O)CN)C(=O)N[C@@H](Cc1ccccc1)C(=O)N[C@@H](CC(C)C)C(=O)N[C@@H](CCCCN)C(=O)N[C@H](C(=O)N[C@@H](CC(C)C)C(=O)NCC(=O)N[C@H](C(=O)NCC(=O)N[C@@H](CCCCN)C(=O)N[C@@H](CCCCN)C(=O)N[C@H](C(=O)N[C@@H](CC(C)C)C(=O)N[C@H]1CSSC[C@@H](C(=O)O)NC(=O)[C@H](CC(C)C)NC(=O)CNC(=O)[C@H](CO)NC(=O)[C@H](C(C)C)NC(=O)CNC1=O)C(C)C)C(C)C)C(C)C` [GIFLKVLGVGKKVLCGVSGLC], the MIC in experiment [1] is 2.58 µM (≈ 5.39 µg/mL); in experiment [2], 5.17 µM (≈ 10.8 µg/mL); in experiment [3] it was 5.17 µM (≈ 10.8 µg/mL); in experiment [4] it was 10.3 µM (≈ 21.6 µg/mL).
In the case of `CC[C@H](C)[C@H](NC(=O)CN)C(=O)N[C@@H](Cc1ccccc1)C(=O)N[C@@H](CO)C(=O)N[C@@H](CCCCN)C(=O)N[C@H](C(=O)N[C@@H](CO)C(=O)NCC(=O)N[C@@H](CCCCN)C(=O)N[C@@H](C)C(=O)N[C@H](C(=O)N[C@@H](CCCCN)C(=O)N[C@@H](CC(N)=O)C(=O)N[C@@H](CC(C)C)C(=O)N[C@@H](Cc1ccccc1)C(=O)N[C@H](C(=O)N[C@@H](CCCCN)C(=O)NCC(=O)N[C@@H](C)C(=O)N[C@@H](CCCCN)C(=O)N[C@@H](CC(N)=O)C(=O)N[C@H](C(=O)NCC(=O)N[C@@H](CCCCN)C(=O)N[C@@H](CCC(=O)O)C(=O)N[C@H](C(=O)NCC(=O)N[C@@H](CCSC)C(=O)N[C@@H](CC(=O)O)C(=O)N[C@H](C(=O)N[C@H](C(=O)N[C@@H](CCCN=C(N)N)C(=O)N[C@H](C(=O)NCC(=O)N[C@@H](CCSC)C(=O)N[C@@H](CC(=O)O)C(=O)N[C@H](C(=O)N[C@H](C(=O)NCC(=O)N[C@H]1CSSC[C@@H](C(=O)O)NC(=O)[C@H](CCC(=O)O)NC(=O)CNC(=O)[C@H](CCCCN)NC(=O)[C@H]([C@@H](C)CC)NC(=O)[C@H](CCCCN)NC1=O)C(C)C)C(C)C)[C@@H](C)O)C(C)C)C(C)C)C(C)C)C(C)C)[C@@H](C)CC)[C@@H](C)CC)[C@@H](C)CC` [GIFSKISGKAIKNLFIKGAKNVGKEVGMDVVRTGMDVVGCKIKGEC], the MIC was determined as 0.849 µM (≈ 4.1 µg/mL) in experiment [1], 0.435 µM (≈ 2.1 µg/mL) in experiment [2], 0.849 µM (≈ 4.1 µg/mL) in experiment [3] and 1.7 µM (≈ 8.2 µg/mL) in experiment [4].
As to `CC[C@H](C)[C@H](NC(=O)CN)C(=O)N[C@@H](Cc1ccccc1)C(=O)N[C@H](C(=O)N[C@@H](CC(C)C)C(=O)N[C@H](C(=O)N[C@@H](CCCCN)C(=O)NCC(=O)N[C@@H](C)C(=O)N[C@@H](C)C(=O)N[C@@H](CCCCN)C(=O)N[C@@H](CC(C)C)C(=O)N[C@H](C(=O)NCC(=O)N[C@@H](CCCCN)C(=O)N[C@H](C(=O)N[C@H](C(=O)N[C@@H](C)C(=O)N[C@@H](CCCCN)C(=O)N[C@@H](CCC(=O)O)C(=O)N[C@@H](C)C(=O)NCC(=O)N[C@@H](CCCCN)C(=O)N[C@H](C(=O)NCC(=O)N[C@@H](CC(C)C)C(=O)N[C@@H](CCC(=O)O)C(=O)N[C@@H](CC(C)C)C(=O)N[C@@H](CCSC)C(=O)N[C@@H](C)C(=O)N[C@H]1CSSC[C@@H](C(=O)O)NC(=O)[C@H](CCC(N)=O)NC(=O)[C@H](CC(N)=O)NC(=O)[C@H]([C@@H](C)O)NC(=O)[C@H]([C@@H](C)CC)NC(=O)[C@H](CCCCN)NC1=O)[C@@H](C)O)C(C)C)[C@@H](C)O)[C@@H](C)CC)[C@@H](C)CC)[C@@H](C)O` [GIFTLIKGAAKLIGKTVAKEAGKTGLELMACKITNQC], the minimal inhibitory concentration (MIC) in experiment [1] was 1.13 µM (≈ 4.3 µg/mL); in experiment [2], 2.22 µM (≈ 8.5 µg/mL); in experiment [3] it was 2.22 µM (≈ 8.5 µg/mL); in experiment [4] it was 1.13 µM (≈ 4.3 µg/mL).
Take `CC[C@H](C)[C@H](NC(=O)CNC(=O)[C@H](CCCCN)NC(=O)CNC(=O)[C@H](C)NC(=O)[C@H](Cc1ccccc1)NC(=O)[C@H](CCCCN)NC(=O)[C@H](CO)NC(=O)[C@H](Cc1ccccc1)NC(=O)[C@H](CC(C)C)NC(=O)CN)C(=O)N[C@@H](CCCCN)C(=O)N[C@@H](CC(=O)O)C(=O)N[C@@H](CC(C)C)C(=O)N[C@H](C(=O)N[C@@H](Cc1ccccc1)C(=O)N[C@@H](CCCCN)C(=O)NCC(=O)N[C@H](C(=O)N[C@@H](CCCCN)C(=O)N[C@@H](Cc1cnc[nH]1)C(=O)N[C@H](C(=O)NCC(=O)N[C@@H](CCCCN)C(=O)N[C@@H](CCC(=O)O)C(=O)N[C@H](C(=O)NCC(=O)N[C@@H](CCSC)C(=O)N[C@@H](CC(=O)O)C(=O)N[C@H](C(=O)N[C@H](C(=O)N[C@@H](CCCN=C(N)N)C(=O)N[C@H](C(=O)NCC(=O)N[C@H](C(=O)N[C@@H](CC(=O)O)C(=O)N[C@H](C(=O)N[C@@H](C)C(=O)NCC(=O)N[C@H]1CSSC[C@@H](C(=O)O)NC(=O)[C@H](CCC(=O)O)NC(=O)CNC(=O)[C@H](CCCCN)NC(=O)[C@H]([C@@H](C)CC)NC(=O)[C@H](CCCCN)NC1=O)C(C)C)[C@@H](C)CC)[C@@H](C)O)[C@@H](C)CC)C(C)C)C(C)C)[C@@H](C)CC)C(C)C)[C@@H](C)CC` [GLFSKFAGKGIKDLIFKGVKHIGKEVGMDVIRTGIDVAGCKIKGEC]: the MIC in experiment [1] was found to be 1.11 µM (≈ 5.4 µg/mL); in experiment [2], 0.555 µM (≈ 2.7 µg/mL); in experiment [3], 1.11 µM (≈ 5.4 µg/mL); in experiment [4], 0.555 µM (≈ 2.7 µg/mL).
Regarding `CC[C@H](C)[C@H](NC(=O)CNC(=O)[C@H](CCCCN)NC(=O)CNC(=O)[C@H](CO)NC(=O)[C@H](Cc1ccccc1)NC(=O)[C@H](CCCCN)NC(=O)[C@H](CO)NC(=O)[C@H](Cc1ccccc1)NC(=O)[C@H](CC(C)C)NC(=O)CN)C(=O)N[C@@H](CCCCN)C(=O)N[C@@H](CC(N)=O)C(=O)N[C@@H](Cc1ccccc1)C(=O)N[C@@H](CC(C)C)C(=O)N[C@H](C(=O)N[C@@H](CCCCN)C(=O)NCC(=O)N[C@H](C(=O)N[C@@H](CCCCN)C(=O)N[C@@H](Cc1cnc[nH]1)C(=O)N[C@H](C(=O)NCC(=O)N[C@@H](CCCCN)C(=O)N[C@@H](CCC(=O)O)C(=O)N[C@H](C(=O)NCC(=O)N[C@@H](CCSC)C(=O)N[C@@H](CC(=O)O)C(=O)N[C@H](C(=O)N[C@H](C(=O)N[C@@H](CCCN=C(N)N)C(=O)N[C@H](C(=O)NCC(=O)N[C@H](C(=O)N[C@@H](CC(=O)O)C(=O)N[C@H](C(=O)N[C@@H](C)C(=O)NCC(=O)N[C@H]1CSSC[C@@H](C(=O)O)NC(=O)[C@H](CCC(=O)O)NC(=O)CNC(=O)[C@H](CCCCN)NC(=O)[C@H]([C@@H](C)CC)NC(=O)[C@H](CCCCN)NC1=O)C(C)C)[C@@H](C)CC)[C@@H](C)O)[C@@H](C)CC)C(C)C)C(C)C)[C@@H](C)CC)C(C)C)[C@@H](C)CC` [GLFSKFSGKGIKNFLIKGVKHIGKEVGMDVIRTGIDVAGCKIKGEC], the MIC in experiment [1] is 0.266 µM (≈ 1.3 µg/mL); in experiment [2], 0.266 µM (≈ 1.3 µg/mL); in experiment [3], 0.512 µM (≈ 2.5 µg/mL); in experiment [4] it was 0.512 µM (≈ 2.5 µg/mL).
In the case of `CC[C@H](C)[C@H](N)C(=O)N1CCC[C@H]1C(=O)N[C@@H](Cc1c[nH]c2ccccc12)C(=O)N[C@@H](CCCCN)C(=O)N[C@@H](CC(C)C)C(=O)N1CCC[C@H]1C(=O)N[C@@H](C)C(=O)N[C@H](C(=O)N[C@@H](Cc1ccccc1)C(=O)N[C@@H](CCCN=C(N)N)C(=O)N1CCC[C@H]1C(=O)N[C@H](C(=O)N[C@@H](CCC(=O)O)C(=O)N[C@@H](CCCN=C(N)N)C(=O)N1CCC[C@H]1C(=O)N[C@@H](Cc1ccccc1)C(=O)N[C@@H](CO)C(=O)N[C@@H](CCCCN)C(=O)N1CCC[C@H]1C(=O)N[C@@H](Cc1ccccc1)C(=O)N[C@@H](CS)C(=O)N[C@@H](CCCN=C(N)N)C(=O)N[C@@H](CCCCN)C(=O)N[C@@H](CC(=O)O)C(=O)O)C(C)C)[C@@H](C)O` [IPWKLPATFRPVERPFSKPFCRKD], the MIC in experiment [1] is 34.3 µM (≈ 100 µg/mL); in experiment [2], no less than 34.3 µM; in experiment [3], greater than 34.3 µM; in experiment [4], no less than 34.3 µM.
In the case of `CC[C@H](C)[C@H](NC(=O)[C@H](CC(C)C)NC(=O)[C@@H](NC(=O)[C@H](Cc1ccccc1)NC(=O)[C@@H](NC(=O)[C@@H](N)CCC(N)=O)C(C)C)[C@@H](C)O)C(=O)N[C@@H](CCCCN)C(=O)NCC(=O)N[C@@H](C)C(=O)N[C@H](C(=O)N[C@@H](CCC(N)=O)C(=O)N[C@@H](CC(C)C)C(=O)N[C@H](C(=O)N[C@@H](CCCN=C(N)N)C(=O)N[C@@H](CCCCN)C(=O)N[C@H](C(=O)N[C@@H](CC(C)C)C(=O)NCC(=O)N[C@@H](CCC(=O)O)C(=O)N[C@@H](CCC(N)=O)C(=O)O)[C@@H](C)O)[C@@H](C)CC)[C@@H](C)O` [QVFTLIKGATQLIRKTLGEQ], the MIC came to 3.56 µM (≈ 8 µg/mL) in experiment [1], 3.56 µM (≈ 8 µg/mL) in experiment [2], 1.78 µM (≈ 4 µg/mL) in experiment [3] and 7.13 µM (≈ 16 µg/mL) in experiment [4].
Consider `CC[C@H](C)[C@H](NC(=O)[C@H](C)NC(=O)[C@H](CC(C)C)NC(=O)[C@H](CCC(=O)O)NC(=O)[C@H](CCCCN)NC(=O)[C@H](Cc1ccccc1)NC(=O)[C@@H](NC(=O)[C@H](CO)NC(=O)[C@H](CC(C)C)NC(=O)[C@H](Cc1ccccc1)NC(=O)[C@@H](N)CO)[C@@H](C)O)C(=O)N[C@@H](CC(N)=O)C(=O)N[C@@H](C)C(=O)N[C@@H](C)C(=O)N[C@@H](CCCCN)C(=O)N[C@@H](CC(N)=O)C(=O)N[C@@H](C)C(=O)NCC(=O)N[C@@H](CCC(N)=O)C(=O)N[C@@H](CO)C(=O)N[C@H](C(=O)N[C@@H](CC(C)C)C(=O)N[C@@H](Cc1cnc[nH]1)C(=O)N[C@H](C(=O)N[C@@H](CC(C)C)C(=O)N[C@@H](CO)C(=O)N[C@H]1CSSC[C@@H](C(=O)O)NC(=O)[C@H]([C@@H](C)O)NC(=O)[C@H](CCCCN)NC(=O)[C@H](CC(=O)O)NC(=O)[C@H](CC(C)C)NC(=O)[C@H](CCCCN)NC1=O)[C@@H](C)O)[C@@H](C)CC` [SFLSTFKELAINAAKNAGQSILHTLSCKLDKTC], for which the minimal inhibitory concentration (MIC) was 2.87 µM (≈ 10.2 µg/mL) in experiment [1], 1.44 µM (≈ 5.1 µg/mL) in experiment [2], 5.74 µM (≈ 20.4 µg/mL) in experiment [3] and 5.74 µM (≈ 20.4 µg/mL) in experiment [4].
